Target: T1, transglutaminase 2 (TG2, tissue transglutaminase) (Homo sapiens, UniProt P21980)
T1 construct: gene TGM2
T1 sequence (P21980 2-687): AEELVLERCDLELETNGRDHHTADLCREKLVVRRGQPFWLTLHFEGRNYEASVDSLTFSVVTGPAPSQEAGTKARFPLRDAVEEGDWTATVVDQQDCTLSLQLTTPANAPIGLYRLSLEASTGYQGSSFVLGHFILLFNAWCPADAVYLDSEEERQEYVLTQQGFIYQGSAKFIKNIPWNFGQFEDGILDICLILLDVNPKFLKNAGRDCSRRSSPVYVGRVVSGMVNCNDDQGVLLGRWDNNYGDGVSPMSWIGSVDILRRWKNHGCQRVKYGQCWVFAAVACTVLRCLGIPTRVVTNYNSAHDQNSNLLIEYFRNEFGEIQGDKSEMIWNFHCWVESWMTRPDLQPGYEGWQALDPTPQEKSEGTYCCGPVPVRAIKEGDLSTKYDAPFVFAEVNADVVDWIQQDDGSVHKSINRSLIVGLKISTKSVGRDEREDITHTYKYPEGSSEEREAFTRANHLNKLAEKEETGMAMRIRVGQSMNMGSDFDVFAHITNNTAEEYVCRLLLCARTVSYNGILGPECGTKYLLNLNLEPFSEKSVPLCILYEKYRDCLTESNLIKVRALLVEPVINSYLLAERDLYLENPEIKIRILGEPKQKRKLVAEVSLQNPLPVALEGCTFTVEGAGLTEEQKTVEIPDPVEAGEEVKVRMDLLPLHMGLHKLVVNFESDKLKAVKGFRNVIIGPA
Test: in vitro 5BP transamidation assay with immobilized TG2 ([…]), photometric
Assay type: biochemical

SMILES: N[C@@H](CSSC[C@H](N)C(=O)O)C(=O)O [L-cystine]
- IC50: 140 µM

SMILES: CCC(C)SSc1ncc[nH]1 (centres unmarked) [PX12, 1-methylpropyl 2-imidazolyl disulfide]
- IC50: 0.7 µM

From article PMC8879474, “Tissue Transglutaminase but Not Microbial Transglutaminase Is Inhibited by Exogenous Oxidative Substances in Celiac Disease” (International Journal of Molecular Sciences, 2022)
